In US20260176289A1, “SMALL MOLECULE INHIBITORS OF KRAS PROTEINS” (Merck Sharp & Dohme LLC, priority 2022, published 2026):
Read-outs that look alike come from different tables or passages of the source.

Legend:
[1] = molecular target: KRAS-G12V (Homo sapiens, UniProt P01116, G12V); experiment: SOS-catalyzed nucleotide exchange assay (Procedure A, TR-FRET), KRAS-G12V; assay type: biochemical; conditions: nucleotide exchange, read-out: KRAS G12V GNE IC50
Procedure, shortened: (§1)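 TR-FRET readout (520/495 nm) of SOS-driven exchange of Bodipy-GDP for unlabeled GTP (3 mM) on biotinylated, Tb-streptavidin-bound RAS, after 60 min compound preincubation at room temperature. Exchange times and RAS/SOS levels: 60 min for WT (1/40 nM), G12C triple mutant (3/40 nM), NRAS (1.25/40 nM); 90 min for G12V (1.25/160 nM). Four-parameter logistic fits on normalized effect.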

[2] = molecular target: KRAS-WT (Homo sapiens, UniProt P01116); experiment: SOS-catalyzed nucleotide exchange assay (Procedure A, TR-FRET), KRAS-WT; assay type: biochemical; conditions: nucleotide exchange, read-out: KRAS WT GNE IC50
Sequence of KRAS-WT (P01116 with tags, fused parts or gaps isoform P01116-2): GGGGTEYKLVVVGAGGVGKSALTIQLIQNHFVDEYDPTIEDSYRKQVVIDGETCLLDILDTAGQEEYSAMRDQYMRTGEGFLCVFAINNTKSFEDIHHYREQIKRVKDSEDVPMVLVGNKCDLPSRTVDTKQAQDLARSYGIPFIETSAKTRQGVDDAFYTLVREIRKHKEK
Procedure, shortened: as §1

[3] = molecular target: KRAS-G13D (Homo sapiens, UniProt P01116, G13D); experiment: SOS-catalyzed nucleotide exchange assay (Procedure A, TR-FRET), KRAS-G13D; assay type: biochemical; conditions: nucleotide exchange, Procedure A; read-out: KRAS G13D GNE IC50
Sequence of KRAS-G13D (P01116 with tags, fused parts or gaps isoform P01116-2 G13D): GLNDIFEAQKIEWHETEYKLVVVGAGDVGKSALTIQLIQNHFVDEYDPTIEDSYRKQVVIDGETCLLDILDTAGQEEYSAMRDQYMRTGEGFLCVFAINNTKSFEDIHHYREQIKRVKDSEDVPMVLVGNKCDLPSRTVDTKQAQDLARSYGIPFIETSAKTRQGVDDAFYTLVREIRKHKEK

[4] = test system: PANC08.13 cells; experiment: Cellular phospho-ERK assay, PANC08.13 cells (homozygous KRAS-G12D); assay type: cell-based; conditions: Homo sapiens, read-out: PANC-08.13 pERK IC50
Procedure: Procedure for Cellular Phospho-ERK Assay in KRAS Wild Type and Mutant (G12D, G12V) Cell Lines
MKN-1 cells (JCRB JCRB0252) containing amplified wild-type KRAS, were cultured in growth medium that contains RPMI 1640-GlutaMAX™-I (ThermoFisher Scientific 61870) containing 10% heat inactivated fetal bovine serum (ThermoFisher Scientific 10091148), 1 mM sodium pyruvate and 10 mM HEPES. PANC08.13 cells (ATCC® CRL-2551™), containing homozygous KRAS-G12D activating mutation, were cultured in growth medium made of RPMI1640-GlutaMAX™-I (ThermoFisher Scientific 61870) containing 15% heat inactivated fetal bovine serum (ThermoFisher Scientific 10091148)). AsPC-1 cells (ATCC® CRL-1682™), containing homozygous KRAS-G12D activating mutation, were cultured in T150 flask in growth medium (RPMI medium 1640-GlutaMAX™-I (ThermoFisher Scientific 61870) containing 10% fetal bovine serum (ThermoFisher Scientific 10091148)). SW620 cells (ATCC® […]), containing homozygous KRAS-G12V activating mutation, were cultured in growth medium that contains RPMI 1640-GlutaMAX™-I (ThermoFisher Scientific 61870) containing 10% heat inactivated fetal bovine serum (ThermoFisher Scientific 10091148).
Cells for the assay were harvested in growth medium after TrypLE (ThermoFisher scientific 12604021) digestion and were seeded in a 384-well collagen coated cell culture plate (Corning 356702) at a density of 10,000-15,000 cells/20 μL/well, and incubated at 37° C., 5% CO2 overnight. The compound (with 10 mM stock concentration) dose-response titrations were prepared [30 μM final ERK detection assay concentration and 1:3 dilutions, 10-point dose response] and appropriate amounts (270 nL) of test compounds were dispensed in a 384-well intermediate plate using an Echo 550 liquid handler. 30 μL/well of RPMI medium 1640-GlutaMAX™—I was added to the intermediate plate and the contents of the intermediate plate (10 μL/well) were then transferred to the 384-well collagen coated cell culture plate, which was incubated at 37° C., 5% CO2 for 2 hours. After removal of medium from the collagen coated cell culture plate, cells were lysed in lysis buffer from Alpha SureFire® Ultra™ Multiplex p-ERK and total ERK assay kit (PerkinElmer MPSU-PTERK) containing Halt™ Protease and Phosphatase inhibitor cocktail (ThermoFisher Scientific 78446) at room temperature with constant shaking at 300 rpm for 30 minutes. The cell lysates were then transferred to an OptiPlate-384 plate (PerkinElmer 6005620), and the phosphorylation of ERK (p-ERK) and total ERK levels were detected by Alpha SureFire® Ultra™ Multiplex p-EEK kit and total ERK assay kit (PerkinElmer MPSU-PTERK) following the manufacturer's protocol. Assay plates were read on a En Vision Multimode Plate Reader (PerkinElmer), and the ratio of p-ERK vs. total ERK in each well was used as the final readout. Dose response curves were analyzed using a 4-parameter logistic model to calculate IC50 values using Spotfire software.

[5] = molecular target: KRAS-G12D (Homo sapiens, UniProt P01116, G12D); experiment: SOS-catalyzed nucleotide exchange assay (Procedure A, TR-FRET), KRAS-G12D; assay type: biochemical; conditions: nucleotide exchange, read-out: KRAS G12D GNE IC50
Sequence of KRAS-G12D (P01116 with tags, fused parts or gaps isoform P01116-2 G12D): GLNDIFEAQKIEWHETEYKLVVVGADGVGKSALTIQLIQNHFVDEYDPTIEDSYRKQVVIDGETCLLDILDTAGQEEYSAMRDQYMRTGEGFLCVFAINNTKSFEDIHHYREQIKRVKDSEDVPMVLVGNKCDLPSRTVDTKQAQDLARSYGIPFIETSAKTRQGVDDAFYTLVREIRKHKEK
Procedure, shortened: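 Signal ratio (520/495 nm, excitation 340 nm) reports Bodipy-GDP retention on biotinylated RAS after SOS-catalyzed exchange with 3 mM GTP. SOS was 40 nM, except 160 nM for G12V. Room-temperature exchange lasted 60 min (90 min for G12V), following a 60 min compound preincubation.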

[6] = molecular target: KRAS-G12C (C51S/C80L/C118S) (Homo sapiens, UniProt P01116, C118S/C51S/C80L/G12C); experiment: SOS-catalyzed nucleotide exchange assay (Procedure A, TR-FRET), KRAS-G12C; assay type: biochemical; conditions: nucleotide exchange, Procedure A; read-out: KRAS G12C GNE IC50
Sequence of KRAS-G12C (C51S/C80L/C118S) (P01116 with tags, fused parts or gaps isoform P01116-2 G12C/C51S/C80L/C118S): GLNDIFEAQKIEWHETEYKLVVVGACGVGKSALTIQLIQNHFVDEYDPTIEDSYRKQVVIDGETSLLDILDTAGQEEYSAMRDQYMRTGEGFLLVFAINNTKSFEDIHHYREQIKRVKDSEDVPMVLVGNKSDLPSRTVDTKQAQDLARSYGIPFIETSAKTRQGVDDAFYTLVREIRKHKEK
Procedure, shortened: as §1

[7] = PANC-08-13, 2 hours compound incubation

Sequence of KRAS-G12V (P01116 with tags, fused parts or gaps isoform P01116-2 G12V): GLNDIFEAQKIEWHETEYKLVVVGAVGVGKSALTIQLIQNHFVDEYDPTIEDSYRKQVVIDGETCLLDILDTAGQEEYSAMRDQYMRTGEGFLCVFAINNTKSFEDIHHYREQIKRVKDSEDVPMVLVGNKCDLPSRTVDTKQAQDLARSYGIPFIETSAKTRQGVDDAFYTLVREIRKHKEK

Row | Structure (SMILES) | IC50 [1] [nM] | IC50 [2] [nM] | IC50 [3] [nM] | IC50 ([4]; PANC-08-13, KRAS-G12D, 2 hours) [nM] | IC50 [5] [nM] | IC50 [6] [nM] | IC50 [4, 7] [nM]
1 | Cc1cc2c3c(N4CCOC[C@@](C)(O)C4)nc(OC[C@@]45CCCN4C[C@H](F)C5)nc3n(C)c2c(-c2c(C(F)(F)F)c(C)cc3[nH]ncc23)n1 (single isomer, unassigned) [Ex-28] | 934 | 973 | 541 | 2040 | 629 | 275 | 
2 | Cn1c2nc(OC[C@@]34CCCN3C[C@H](F)C4)nc(N3CCOC[C@@](C)(O)C3)c2c2ccnc(-c3c(C(F)F)c(Cl)cc4[nH]nc(C#N)c34)c21 (single isomer, unassigned) [Ex-12] | 2960 | 5930 | 2650 | 6060 | 2150 | 584 | 
3 | CCn1c2nc(OC[C@@]34CCCN3C[C@H](F)C4)nc(N3CCOC[C@@](C)(O)C3)c2c2ccnc(-c3c(C(F)(F)F)c(C)cc4[nH]ncc34)c21 [Ex-24, (6S)-4-(9-ethyl-2-(((2R,7aS)-2-fluorotetrahydro-1H-pyrrolizin-7a(5H)-yl)methoxy)-8-(6-methyl-5-(trifluoromethyl)-1H-indazol-4-yl)-9H-pyrido[4′,3′:4,5]pyrrolo[2,3-d]pyrimidin-4-yl)-6-methyl-1,4-oxazepan-6-ol] | 492 | 929 | 1020 | 749 | 705 | 224 | 
4 | Cc1nc2[nH]ncc2c(-c2nccc3c4c(N5CCOC[C@@](C)(O)C5)nc(OC[C@@]56CCCN5C[C@H](F)C6)nc4n(C)c23)c1C(F)(F)F [Ex-14, (6S)-4-(2-(((2R,7aS)-2-fluorotetrahydro-1H-pyrrolizin-7a(5H)-yl)methoxy)-9-methyl-8-(6-methyl-5-(trifluoromethyl)-1H-pyrazolo[3,4-b]pyridin-4-yl)-9H-pyrido[4′,3′:4,5]pyrrolo[2,3-d]pyrimidin-4-yl)-6-methyl-1,4-oxazepan-6-ol] | 404 | 681 | 543 | 561 | 276 | 233 | 
5 | Cc1cc2[nH]ncc2c(-c2nccc3c4c(N5CC6CCC(F)(C5)N6)nc(OC[C@@]56CCCN5C[C@H](F)C6)nc4n(C)c23)c1C(F)(F)F (single isomer, unassigned) [Ex-22] | 409 | 975 | 456 | 3510 | 2440 | 189 | 
6 | Cc1cc2[nH]nc(C#N)c2c(-c2nccc3c4c(N5CCOC[C@@](C)(O)C5)nc(OC[C@@]56CCCN5C[C@H](F)C6)nc4n(C)c23)c1C(F)(F)F (single isomer, unassigned) [Ex-4] | 536 | 568 | 430 | 1640 | 339 | 124 | 
7 | Cc1cc2[nH]nc(C#N)c2c(-c2nccc3c4c(N5CCOC[C@@](C)(O)C5)nc(OC[C@@]56CCCN5C[C@H](F)C6)nc4n(C)c23)c1C(F)F (single isomer, unassigned) [Ex-9] | 575 | 1350 | 560 | 1690 | 616 | 566 | 
8 | Cc1cc2[nH]ncc2c(-c2nccc3c4c(N5CCOCC(O)C5)nc(OC[C@@]56CCCN5C[C@H](F)C6)nc4n(C)c23)c1C(F)(F)F (single isomer, unassigned) [Ex-23] | 657 | 1200 | 789 | 3060 | 1430 | 190 | 

Results, then the molecule that gave them:

Row | IC50 [1] [nM] | IC50 [2] [nM] | IC50 [3] [nM] | IC50 ([4]; PANC-08-13, KRAS-G12D, 2 hours) [nM] | IC50 [5] [nM] | IC50 [6] [nM] | IC50 [4, 7] [nM] | Structure (SMILES)
9 | 2120 | 1870 | 1430 |  | 1210 | 743 | 974 | Cc1cc2[nH]nc(C#N)c2c(-c2nccc3c2sc2nc(OC[C@@]45CCCN4C[C@H](F)C5)nc(N4CCOC[C@@](C)(O)C4)c23)c1C(F)(F)F [Ex-150, 4-(2-(((2R,7aS)-2-fluorotetrahydro-1H-pyrrolizin-7a(5H)-yl)methoxy)-4-((S)-6-hydroxy-6-methyl-1,4-oxazepan-4-yl)pyrido[4′,3′:4,5]thieno[2,3-d]pyrimidin-8-yl)-6-methyl-5-(trifluoromethyl)-1H-indazole-3-carbonitrile]
10 | 401 | 330 | 87.6 | 1010 | 671 | 121 |  | C[C@@]1(O)COCCN(c2nc(OC[C@@]34CCCN3C[C@H](F)C4)nc3sc4c(-c5ccc(F)c6sc(N)c(C#N)c56)cncc4c23)C1 [Ex-274, 2-amino-7-fluoro-4-(2-(((2R,7aS)-2-fluorotetrahydro-1H-pyrrolizin-7a(5H)-yl)methoxy)-4-((S)-6-hydroxy-6-methyl-1,4-oxazepan-4-yl)pyrido[3′,4′:4,5]thieno[2,3-d]pyrimidin-8-yl)benzo[b]thiophene-3-carbonitrile]
11 | 533 | 330 | 150 | 268 | 164 | 125 |  | CCc1c(C)cc2[nH]ncc2c1-c1nccc2c1sc1nc(OC[C@@]34CCCN3C[C@H](F)C4)nc(N3CCOC[C@@](C)(O)C3)c12 [Ex-36, (6S)-4-(8-(5-ethyl-6-methyl-1H-indazol-4-yl)-2-(((2R,7aS)-2-fluorotetrahydro-1H-pyrrolizin-7a(5H)-yl)methoxy)pyrido[4′,3′:4,5]thieno[2,3-d]pyrimidin-4-yl)-6-methyl-1,4-oxazepan-6-ol]
12 | 194 | 822 | 668 |  | 591 | 96.7 | 812 | Cc1cc2[nH]ncc2c(-c2nccc3c2sc2nc(OC[C@@]45CCCN4C[C@H](F)C5)nc(NC4COC4)c23)c1C(F)(F)F [Ex-184, 2-(((2R,7aS)-2-fluoro-tetrahydro-1H-pyrrolizin-7a(5H)-yl)methoxy)-8-(6-methyl-5-(trifluorometh-yl)-1H-indazol-4-yl)-N-(oxetan-3-yl)pyrido [4′,3′:4,5]thieno[2,3-d] pyrimidin-4-amine]
13 | 876 | 7210 | 2310 |  | 1160 | 648 | 2680 | C[C@@]1(O)COCCN(c2nc(OC[C@@]34CCCN3C[C@H](F)C4)nc3sc4c(-c5c(C(F)F)ccc6[nH]ncc56)nccc4c23)C1 [Ex-134]
14 | 1600 | 2760 | 1320 |  | 7600 | 124 | 3900 | Cc1cc2[nH]ncc2c(-c2nccc3c2sc2nc(OC[C@@]45CCCN4C[C@H](F)C5)nc(N4CCOCC4)c23)c1C(F)(F)F [Ex-179, 4-(2-(((2R,7aS)-2-fluorotetrahydro-1H-pyrrolizin-7a(5H)-yl)methoxy)-8-(6-methyl-5-(trifluoromethyl)-1H-indazol-4-yl)pyrido[4′,3′:4,5]thieno[2,3-d]pyrimidin-4-yl) morpholine]
